The values that follow come from patent US6555563B1, “Heteroaryl substituted amidinyl and imidazolyl compounds and methods employing same for the treatment of inflammation” (Medinox, Inc., priority 2001, dated 2003).

A short description of series [1]: Pharmacokinetics after oral administration in rats. The series is classed as in vivo, Male Sprague Dawley rats. As to conditions: rat. The method, then: The animals are housed, fed and cared for according to the Guidelines of the […] Council on Animal Care. Male Sprague Dawley rats (250-300 g) are fasted overnight prior to each PO blood level study. The rats are placed in the restrainer one at a time and the box firmly secured. Compounds are prepared as required, in a standard dosing volume of 500 μL/250 g, and administered orally by passing a 16 gauge, 3″ gavaging needle into the stomach. Rats are catheterized at the carotid at least one day before drug administration and flushed with 30% PVP (400 U/mL of heparin) to prevent clotting in the tip. 250 μL blood samples are collected by unhooking the flush syringe and letting the blood flow freely in centrifuge tube at predetermined time points. The tubes should be centrifuged at 13,000 rpm for 10 min at 4° C. The plasma samples are collected in microcentrifuge tubes and stored immediately at −20° C. until analysis or analyzed immediately. Typical time points for determination of rat blood levels after PO dosing are: 30 min, 1 h, 3 h, 5 h, 7 h, 23 h, 25 h, 28 h, 31 h. A 100 μL aliquot of plasma sample is mixed with 150 μL of acetonitrile. After vortex and centrifuge, 200 μL of the supernatant is dried up under Speed Vac. The residue is reconstituted with 100 μL of methanol. After vortex and centrifuge again, 25 μL of supernatant is analyzed by C-18 HPLC column using UV detector. Quantitation is done relative to a clean blood sample spiked with a known quantity of drug.

The target of a further series is T1, COX-2 (Ovis aries, UniProt P79208).
T1 construct: host or cells: insect cells (membranes, CHAPS-solubilized)
T1 sequence (P79208 17-603): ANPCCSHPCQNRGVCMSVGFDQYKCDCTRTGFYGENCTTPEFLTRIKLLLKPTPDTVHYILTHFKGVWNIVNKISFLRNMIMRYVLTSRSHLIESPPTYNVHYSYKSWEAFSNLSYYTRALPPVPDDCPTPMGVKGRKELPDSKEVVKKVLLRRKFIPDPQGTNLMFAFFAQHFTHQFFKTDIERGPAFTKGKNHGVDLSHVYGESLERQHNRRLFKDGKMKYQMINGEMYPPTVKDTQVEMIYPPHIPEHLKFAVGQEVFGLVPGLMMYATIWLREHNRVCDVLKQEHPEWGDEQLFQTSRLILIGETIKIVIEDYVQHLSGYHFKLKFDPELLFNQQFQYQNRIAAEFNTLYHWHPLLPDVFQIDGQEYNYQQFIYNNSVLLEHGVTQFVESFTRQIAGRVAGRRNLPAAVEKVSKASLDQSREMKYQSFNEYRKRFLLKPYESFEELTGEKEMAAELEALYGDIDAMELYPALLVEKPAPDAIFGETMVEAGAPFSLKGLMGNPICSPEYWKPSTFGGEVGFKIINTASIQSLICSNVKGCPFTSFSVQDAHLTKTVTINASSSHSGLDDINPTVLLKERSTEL
As to the kind of experiment: Assay for COX-2 activity (Ovine), PGE2 formation by ELISA. The series is classed as biochemical. As to conditions: for COX-2 10 nM (% inhibition) / inhibition at 0.01 µM: 10 nM compound; for COX-2 50 nM (% inhibition) / inhibition at 0.05 µM: 50 nM compound; for Selectivity: IC50 COX1 / IC50 COX2; for IC50: second number of cell COX1/COX2; for inhibition at 0.01 µM: read-out: COX-2 10 nM (% inhibition); for inhibition at 0.05 µM: read-out: COX-2 50 nM (% inhibition). The method, then:
(§1) COX activity was assayed as PGE2 formed/μg protein/time using ELISA to detect prostaglandin release. CHAPS-solubilized insect cell membranes containing the appropriate COX enzyme were incubated in a potassium phosphate buffer (50 mM, pH 8.0) containing Tris-HCl, EDTA, phenol, and heme with the addition of arachidonic acid (10 μM). Compounds were pre-incubated with the enzyme for 5-10 minutes prior to the addition of arachidonic acid. Any reaction between the arachidonic acid and the enzyme was stopped after two minutes at 37° C. The PGE2 formed was measured by standard ELISA technology (Cayman Chemical).
For orientation: An ELISA detects its analyte on a solid surface through an enzyme-linked reagent.

In a further series the target is T2, COX-1 (Ovis aries, UniProt P05979).
T2 construct: host or cells: insect cells (membranes, CHAPS-solubilized)
T2 sequence (P05979 25-600): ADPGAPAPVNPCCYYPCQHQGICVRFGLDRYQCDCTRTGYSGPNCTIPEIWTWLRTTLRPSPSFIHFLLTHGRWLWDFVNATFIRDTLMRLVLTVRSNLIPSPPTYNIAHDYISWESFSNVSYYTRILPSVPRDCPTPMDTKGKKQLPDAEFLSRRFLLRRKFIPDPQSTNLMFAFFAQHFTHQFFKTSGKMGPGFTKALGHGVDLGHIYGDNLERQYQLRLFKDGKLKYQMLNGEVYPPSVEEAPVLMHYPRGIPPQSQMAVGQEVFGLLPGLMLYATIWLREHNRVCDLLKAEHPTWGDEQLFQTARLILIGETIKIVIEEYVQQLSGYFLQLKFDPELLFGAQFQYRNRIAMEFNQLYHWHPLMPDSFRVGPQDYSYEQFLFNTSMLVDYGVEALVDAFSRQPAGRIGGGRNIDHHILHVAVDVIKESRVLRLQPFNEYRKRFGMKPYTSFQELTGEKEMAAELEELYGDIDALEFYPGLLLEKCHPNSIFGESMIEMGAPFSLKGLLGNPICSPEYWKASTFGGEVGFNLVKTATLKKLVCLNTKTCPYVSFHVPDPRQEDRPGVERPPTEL
As to the kind of experiment: Assay for COX-1 activity (Ovine), PGE2 formation by ELISA. The series is classed as biochemical. As to conditions: for COX-1 10 nM (% inhibition) / inhibition at 0.01 µM: 10 nM compound; for COX-1 50 nM (% inhibition) / inhibition at 0.05 µM: 50 nM compound; for IC50: first number of cell COX1/COX2; for inhibition at 0.01 µM: read-out: COX-1 10 nM (% inhibition); for inhibition at 0.05 µM: read-out: COX-1 50 nM (% inhibition). How it is done:
as §1

In series [2] the test system is adjuvant-induced arthritis in rats. As to the kind of experiment: Adjuvant-induced arthritis rat model, inhibition of paw swelling. Type of series: in vivo, Male Lewis rats. Particulars: oral, daily, days 8-15; paw volume day 15.

As a reminder, the IC50 is the concentration that gives 50% inhibition. Higher therefore signals a need for much substance. One may read the inhibition as how much of the control response was suppressed.

As for “N-[4-(Aminosulfonyl)phenyl]-3-[2-(4-fluorophenyl)-1,3,4-thiadiazol-5-yl]carboximidamide [Example 33]”, the “half-life compared with Celecoxib (in words)” value in series [1] is “longer half-life”. For the same compound, at COX-2, the “COX-2 10 nM (% inhibition)” value turned out to be 84%, the “COX-2 50 nM (% inhibition)” value is given as 100%, the Selectivity amounted to 11 and the IC50 amounted to 3.3 nM. Also, at COX-1, the “COX-1 10 nM (% inhibition)” value is recorded as 23%, the “COX-1 50 nM (% inhibition)” value is 52% and the IC50 is 36 nM.
Regarding `CS(=O)(=O)c1ccc(-n2cc(C(F)(F)F)nc2-c2nnc(Nc3ccccc3)s2)cc1` [Example 52, 1-[4-(Methylsulfonyl)phenyl]-2-[2-(N-anilino)-1,3,4-thiadiazol-5-yl]-4-(trifluoromethyl)-1H-imidazole], on COX-2, the “COX-2 10 nM (% inhibition)” value came out at 98%, the Selectivity is 12 and the half-maximal inhibitory concentration (IC50) was found to be 5.1 nM. Besides, at COX-1, the “COX-1 10 nM (% inhibition)” value was found to be 31% and the half-inhibitory concentration (IC50) came out at 62 nM.
Turning to `N=C(Nc1ccc(S(N)(=O)=O)cc1)c1nnc(-c2ccccc2)s1` [Example 32, N-[4-(Aminosulfonyl)phenyl]-3-[2-(phenyl)-1,3,4-thiadiazol-5-yl]carboximidamide], the “half-life compared with Celecoxib (in words)” value in series [1] is on record as “longer half-life”. In addition, at COX-2, the “COX-2 10 nM (% inhibition)” value is 85%, the “COX-2 50 nM (% inhibition)” value is 94%, the Selectivity worked out at 17 and the IC50 is 4.8 nM. Also, at COX-1, the “COX-1 10 nM (% inhibition)” value worked out at 15%, the “COX-1 50 nM (% inhibition)” value stood at 45% and the half-inhibitory concentration (IC50) worked out at 79 nM.
Take `Cc1onc(-c2ccccc2)c1-c1ccc(S(N)(=O)=O)cc1` [Valdecoxib, reference compound]: the inhibition at 0.01 µM on COX-1 was 2%.
Consider `NS(=O)(=O)c1ccc(-n2cc(C(F)(F)F)nc2-c2nnc(-c3ccccc3)s2)cc1` [Example 48, 1-[4-(Aminosulfonyl)phenyl]-2-[2-(phenyl)-1,3,4-thiadiazol-5-yl]-4-(trifluoromethyl)-1H-imidazole], for which, in series [1], the “half-life compared with Celecoxib (in words)” value was “longer half-life” and the “pharmacology (pharmacokinetic) profile (in words)” value is given as “excellent pharmacology profile”. At COX-2, the “selectivity for the inhibition of COX-2 over COX-1 (in words)” value was “good selectivity”, the Selectivity is 90, the inhibition at 0.01 µM came to 84% and the inhibition at 0.05 µM was determined as 100%. Further, at COX-2, the IC50 amounted to 0.4 nM. Moreover, in series [2], the “potency in controlling inflammation (in words)” value is “good potency in controlling inflamation”. On COX-1, it took 36 nM to reach half-maximal inhibition (IC50), the inhibition at 0.01 µM came out at 10% and the inhibition at 0.05 µM turned out to be 25%.
Regarding `CS(=O)(=O)c1ccc(-n2cc(C(F)(F)F)nc2-c2nnc(-c3ccccc3)s2)cc1` [Example 44, 1-[4-(Methylsulfonyl)phenyl]-2-(2-phenyl-1,3,4-thiadiazol-5-yl)-4-(trifluoromethyl)-1H-imidazole], on COX-2, the Selectivity was 12, the inhibition at 0.01 µM came to 95%, the inhibition at 0.05 µM stood at 100% and the half-inhibitory concentration (IC50) came to 2.3 nM. On COX-1, the IC50 turned out to be 27 nM, the inhibition at 0.01 µM stood at 30% and the inhibition at 0.05 µM worked out at 45%.
